The series can be described thus: Plasma Compound 1 levels in dogs (LC/MS-MS). It counts as in vivo. As to conditions: dog; for concentration at 10 min / concentration at 30 min / concentration at 120 min: mongrel, plasma; for concentration at 10 min / concentration at 30 min: iv; for concentration at 120 min: po, 10 mg, 10 mg P.O., 120 min post dose. How it is done:
Dogs are studied in the conscious state before and after inducing dilated cardiomyopathy by tachypacing for two weeks at 200 bpm.
The study employs two doses, 0.01 and 0.1 mg/kg, the latter administered 30 minutes after the first.
Intravenous blood is placed in K2EDTA tubes, centrifuged at 2,000 g for 15 min, plasma decanted, and stored frozen. Compound 1 levels are assessed by a rapid, sensitive liquid chromatography-tandem mass spectrometric (LC/MS-MS) method.
The mobile phase consists of a gradient of 60-100% methanol over 4.5 minutes in 5 mM ammonium bicarbonate with 0.2% NH3H2O, pumped at a flow rate of 0.8 mL/min. Analysis time is 4.5 min and both the analyte and internal standard eluted around 2.0 min. Multiple reactions monitoring (MRM) mode is used to detect Compound 1. MS is operated in the positive ion detection mode. […] Calibration curves are linear from 0.02-500 ng/mL in dog plasma sample matrices. The lower limit of quantification (LLOQ) for plasma was 0.02 ng/mL.

The mark [1] stands for this setting: 0.1 mg/kg, plasma Compound 1 concentration, normal dogs, 0.1 mg/kg i.v.
Setting [2] is: 0.1 mg/kg, plasma Compound 1 level, failing dogs, IV administration.

Data on 1 molecule can be found in patent publication US11839614B2, “Methods for treating or mitigating cardiotoxicity characterized by inhibition of adenosine A2 signaling and/or adenosine A2 receptor expression” (INTRA-CELLULAR THERAPIES, INC., priority 2018, dated 2023).

Take `CN1C(=O)c2c(nn(Cc3ccc(-c4cccc(F)n4)cc3)c2Nc2ccccc2)N2C1=N[C@@H]1CCC[C@@H]12` [Compound 1, (6aR,9aS)-2-(4-(6-fluoropyridin-2-yl)benzyl)-5-methyl-3-(phenyl-amino)-5,6a,7,8,9,9a-hexahydrocyclopenta-[4,5]imidazo[1,2-a]pyrazolo[4,3-e]pyrimidin-4-(2H)-one monophosphate]: under “in vivo”, the “therapeutic levels (plasma)” value was in the range of 100 to 300 ng/mL. The concentration at 10 min reads like this: (0.01 mg/kg, plasma Compound 1 concentration, dogs, 0.01 mg/kg i.v.) 23.6 ± 8.6 ng/mL; under setting [1], 211 ± 60.7 ng/mL; under setting [2], 441 ± 92.5 ng/mL. Also, the concentration at 30 min reads like this: under setting [1], 94.5 ± 21.2 ng/mL; under setting [2], 185 ± 28.9 ng/mL. Further, the concentration at 120 min stood at 178 ± 100 ng/mL (plasma Compound 1 concentration, HF dogs) and 104 ± 8.5 ng/mL (plasma Compound 1 concentration, normal dogs).
